In patent publication US8673929B2, “4,6-di- and 2,4,6-trisubstituted quinazoline derivatives and pharmaceutical compositions useful for treating viral infections” (priority 2006, dated 2014):

Legend:
HCV replicon = assay: Anti-HCV replicon assay, EC50 (luciferase readout); assay type: cell-based; details: Hepatitis C virus, 72 h; Huh-7 HCV replicon cells, 3 days incubation, luciferase luminescence
In short: (§1)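 Huh-7 cells harbouring an HCV replicon (6000/well) incubated 3 days at 37° C with 3-fold serially diluted compound (0.5% DMSO final where used). EC50 from luciferase luminescence of lysed cells; CC50 from CellTiter-Glo luminescence in parallel plates.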

[1] = CC50 assay in the anti-HCV replicon assay (CellTiter-Glo); assay type: cell-based, human; details: human, Huh-7 hepatoma cells harbouring an HCV replicon; Huh-7 HCV replicon cells, 3 days incubation, CellTiter-Glo luminescence
In short: as §1

Row | Structure (SMILES) | EC50 (HCV replicon) | CC50 at 3 days [1]
1 | CCOc1nc(N)nc2ccc(-c3ccc(C(=O)NC(C)C)cc3)cc12 [Example 155, 4-(2-Amino-4-ethoxy-quinazolin-6-yl)-N-isopropyl-benzamide] | 0.3 to 1 µM | 10 to 20 µM
2 | CCOc1nc(N)nc2ccc(-c3ccc(C(=O)NOC)cc3)cc12 [Example 156, 4-(2-Amino-4-ethoxy-quinazolin-6-yl)-N-methoxy-benzamide] | 0.3 to 1 µM | > 20 µM
3 | CCOc1nc(N)nc2ccc(-c3ccc(C(=O)NCc4ccco4)cc3)cc12 [Example 157, 4-(2-Amino-4-ethoxy-quinazolin-6-yl)-N-furan-2-ylmethyl-benzamide] | 1 to 10 µM | > 20 µM
4 | CCOc1nc(N)nc2ccc(-c3ccc(C(=O)N4CCSC4)cc3)cc12 [Example 158, [4-(2-Amino-4-ethoxy-quinazolin-6-yl)-phenyl]-thiazolidin-3-yl-methanone] | 1 to 10 µM | > 20 µM
5 | CCOc1nc(N)nc2ccc(-c3ccc(C(=O)NCCN(C)C)cc3)cc12 [Example 159] | < 0.3 µM | < 10 µM
6 | CCOc1nc(N)nc2ccc(-c3ccc(C(=O)Nc4ccccn4)cc3)cc12 [Example 160, 4-(2-Amino-4-ethoxy-quinazolin-6-yl)-N-pyridin-2-yl-benzamide] | 1 to 10 µM | > 20 µM
7 | CCOc1nc(N)nc2ccc(-c3ccc(C(=O)Nc4ccc(F)cc4)cc3)cc12 [Example 161, 4-(2-Amino-4-ethoxy-quinazolin-6-yl)-N-(4-fluoro-phenyl)-benzamide] | 0.3 to 1 µM | < 10 µM
8 | CCOc1nc(N)nc2ccc(-c3ccc(C(=O)N4CCSCC4)cc3)cc12 [Example 162, [4-(2-Amino-4-ethoxy-quinazolin-6-yl)-phenyl]-thiomorpholin-4-yl-methanone] | 1 to 10 µM | > 20 µM
9 | CCOc1nc(N)nc2ccc(-c3ccc(C(=O)NC4=NCCS4)cc3)cc12 [Example 163, 4-(2-Amino-4-ethoxy-quinazolin-6-yl)-N-(4,5-dihydro-thiazol-2-yl)-benzamide] | 1 to 10 µM | > 20 µM
10 | CCOc1nc(N)nc2ccc(-c3ccc(C(=O)NC)c(Cl)c3)cc12 [Example 164, 4-(2-Amino-4-ethoxy-quinazolin-6-yl)-2-chloro-N-methyl-benzamide] | 1 to 10 µM | > 20 µM
11 | CCOc1nc(N)nc2ccc(-c3ccc(C(=O)NC4CC4)c(Cl)c3)cc12 [Example 165, 4-(2-Amino-4-ethoxy-quinazolin-6-yl)-2-chloro-N-cyclopropyl-benzamide] | 1 to 10 µM | > 20 µM
12 | CCOc1nc(N)nc2ccc(-c3cccc(O)c3)cc12 [Example 166, 3-(2-Amino-4-ethoxy-quinazolin-6-yl)-phenol] | 1 to 10 µM | 10 to 20 µM
13 | CCOc1nc(N)nc2ccc(-c3ccc(C(=O)NC4CC4)cc3)cc12 [Example 167, 4-(2-Amino-4-ethoxy-quinazolin-6-yl)-N-cyclopropyl-benzamide] | < 0.3 µM | > 20 µM
14 | CCOc1nc(N)nc2ccc(-c3cccc(C(=O)NC)c3)cc12 [Example 168, 3-(2-Amino-4-ethoxy-quinazolin-6-yl)-N-methyl-benzamide] | 1 to 10 µM | > 20 µM
15 | CC(C)Oc1nc(N)nc2ccc(-c3ccc(C(=O)N4CCCCC4)cc3)cc12 [Example 169, [4-(2-Amino-4-isopropoxy-quinazolin-6-yl)-phenyl]-piperidin-1-yl-methanone] | 1 to 10 µM | > 20 µM
16 | CC(C)Oc1nc(N)nc2ccc(-c3ccc(C(=O)NCc4ccccc4)cc3)cc12 [Example 170, 4-(2-Amino-4-isopropoxy-quinazolin-6-yl)-N-benzyl-benzamide] | 0.3 to 1 µM | < 10 µM
17 | CC(C)CNC(=O)c1ccc(-c2ccc3nc(N)nc(OC(C)C)c3c2)cc1 [Example 171, 4-(2-Amino-4-isopropoxy-quinazolin-6-yl)-N-isobutyl-benzamide] | 0.3 to 1 µM | 10 to 20 µM
18 | CC(C)Oc1nc(N)nc2ccc(-c3ccc(C(=O)NC4CCCCC4)cc3)cc12 [Example 172, 4-(2-Amino-4-isopropoxy-quinazolin-6-yl)-N-cyclohexyl-benzamide] | 0.3 to 1 µM | < 10 µM
19 | CCCCNC(=O)c1ccc(-c2ccc3nc(N)nc(OC(C)C)c3c2)cc1 [Example 173, 4-(2-Amino-4-isopropoxy-quinazolin-6-yl)-N-butyl-benzamide] | < 0.3 µM | < 10 µM
20 | CC(C)Oc1nc(N)nc2ccc(-c3ccc(C(=O)NC(C)(C)C)cc3)cc12 [Example 174, 4-(2-Amino-4-isopropoxy-quinazolin-6-yl)-N-tert-butyl-benzamide] | 0.3 to 1 µM | 10 to 20 µM
21 | CC(C)Oc1nc(N)nc2ccc(-c3ccc(C(=O)NC4CCCC4)cc3)cc12 [Example 175, 4-(2-Amino-4-isopropoxy-quinazolin-6-yl)-N-cyclopentyl-benzamide] | < 0.3 µM | < 10 µM

Row | Structure (SMILES) | EC50 (HCV replicon) | CC50 at 3 days [1]
22 | CC(C)NC(=O)c1ccc(-c2ccc3nc(N)nc(OC(C)C)c3c2)cc1 [Example 176, 4-(2-Amino-4-isopropoxy-quinazolin-6-yl)-N-isopropyl-benzamide] | < 0.3 µM | 10 to 20 µM
23 | CONC(=O)c1ccc(-c2ccc3nc(N)nc(OC(C)C)c3c2)cc1 [Example 177, 4-(2-Amino-4-isopropoxy-quinazolin-6-yl)-N-methoxy-benzamide] | < 0.3 µM | 10 to 20 µM
24 | CC(C)Oc1nc(N)nc2ccc(-c3ccc(C(=O)NCCN(C)C)cc3)cc12 [Example 178, 4-(2-Amino-4-isopropoxy-quinazolin-6-yl)-N-(2-dimethylamino-ethyl)-benzamide] | < 0.3 µM | < 10 µM
25 | CC(C)Oc1nc(N)nc2ccc(-c3ccc(C(=O)Nc4ccc(F)cc4)cc3)cc12 [Example 179, 4-(2-Amino-4-isopropoxy-quinazolin-6-yl)-N-(4-fluoro-phenyl)-benzamide] | 0.3 to 1 µM | < 10 µM
26 | CC(C)Oc1nc(N)nc2ccc(-c3ccc(C(=O)N4CCSCC4)cc3)cc12 [Example 180, [4-(2-Amino-4-isopropoxy-quinazolin-6-yl)-phenyl]-thiomorpholin-4-yl-methanone] | 1 to 10 µM | 10 to 20 µM
27 | CC(C)Oc1nc(N)nc2ccc(-c3ccc(C(=O)NC4=NCCS4)cc3)cc12 [Example 181, 4-(2-Amino-4-isopropoxy-quinazolin-6-yl)-N-(4,5-dihydro-thiazol-2-yl)-benzamide] | 0.3 to 1 µM | 10 to 20 µM
28 | CNC(=O)c1ccc(-c2ccc3nc(N)nc(OC(C)C)c3c2)cc1Cl [Example 182, 4-(2-Amino-4-isopropoxy-quinazolin-6-yl)-2-chloro-N-methyl-benzamide] | < 0.3 µM | > 20 µM
29 | CC(C)Oc1nc(N)nc2ccc(-c3ccc(C(=O)NC4CC4)c(Cl)c3)cc12 [Example 183, 4-(2-Amino-4-isopropoxy-quinazolin-6-yl)-2-chloro-N-cyclopropyl-benzamide] | 0.3 to 1 µM | > 20 µM
30 | CC(C)Oc1nc(N)nc2ccc(-c3cccc(O)c3)cc12 [Example 184, 3-(2-Amino-4-isopropoxy-quinazolin-6-yl)-phenol] | 0.3 to 1 µM | < 10 µM
31 | CC(C)Oc1nc(N)nc2ccc(-c3ccc(C(=O)NC4CC4)cc3)cc12 [Example 185, 4-(2-Amino-4-isopropoxy-quinazolin-6-yl)-N-cyclopropyl-benzamide] | < 0.3 µM | < 10 µM
32 | CNC(=O)c1cccc(-c2ccc3nc(N)nc(OC(C)C)c3c2)c1 [Example 186, 3-(2-Amino-4-isopropoxy-quinazolin-6-yl)-N-methyl-benzamide] | 0.3 to 1 µM | 10 to 20 µM
33 | CCOc1nc(N)nc2ccc(-c3ccc(-c4nnc(C)o4)cc3)cc12 [Example 187, 4-Ethoxy-6-[4-(5-methyl-[1,3,4]oxadiazol-2-yl)-phenyl]-quinazolin-2-ylamine] | 1 to 10 µM | > 20 µM
34 | CC(C)CNC(=O)c1ccc(-c2ccc3nc(N)nc(OCCO)c3c2)cc1 [Example 188, 4-[2-Amino-4-(2-hydroxy-ethoxy)-quinazolin-6-yl]-N-isobutyl-benzamide] | 1 to 10 µM | > 20 µM
35 | Nc1nc(OCCO)c2cc(-c3ccc(C(=O)NC4CCCC4)cc3)ccc2n1 [Example 189, 4-[2-Amino-4-(2-hydroxy-ethoxy)-quinazolin-6-yl]-N-cyclopentyl-benzamide] | 1 to 10 µM | > 20 µM
36 | CC(C)NC(=O)c1ccc(-c2ccc3nc(N)nc(OCCO)c3c2)cc1 [Example 190, 4-[2-Amino-4-(2-hydroxy-ethoxy)-quinazolin-6-yl]-N-isopropyl-benzamide] | 1 to 10 µM | > 20 µM
37 | CONC(=O)c1ccc(-c2ccc3nc(N)nc(OCCO)c3c2)cc1 [Example 191, 4-[2-Amino-4-(2-hydroxy-ethoxy)-quinazolin-6-yl]-N-methoxy-benzamide] | 1 to 10 µM | > 20 µM
38 | Nc1nc(OCCO)c2cc(-c3ccc(C(=O)N4CCSC4)cc3)ccc2n1 [Example 192, {4-[2-Amino-4-(2-hydroxy-ethoxy)-quinazolin-6-yl]-phenyl}-thiazolidin-3-yl-methanone] | 1 to 10 µM | > 20 µM
39 | Nc1nc(OCCO)c2cc(-c3ccc(O)cc3)ccc2n1 [Example 193, 4-[2-Amino-4-(2-hydroxy-ethoxy)-quinazolin-6-yl]-phenol] | 1 to 10 µM | > 20 µM
40 | Nc1nc(OCCO)c2cc(-c3cccc(O)c3)ccc2n1 [Example 194, 3-[2-Amino-4-(2-hydroxy-ethoxy)-quinazolin-6-yl]-phenol] | 1 to 10 µM | 10 to 20 µM
41 | Nc1nc(OCCO)c2cc(-c3ccc(C(=O)NC4CC4)cc3)ccc2n1 [Example 195, 4-[2-Amino-4-(2-hydroxy-ethoxy)-quinazolin-6-yl]-N-cyclopropyl-benzamide] | 1 to 10 µM | > 20 µM
